Entries after “also recorded” stand apart in the source; their conditions may differ. Like-named read-outs stand apart in the source and are kept apart here.
Key:
MARV = assay: microbe, parasite or virus in culture; assay type: cell-based, Marburgvirus (Musoke strain)
EBOV [1] = assay: organism not typed; assay type: cell-based, Zaire Ebolavirus (Mayinga strain)
EBOV [2] = assay: microbe, parasite or virus in culture; assay type: cell-based, Zaire Ebolavirus (Mayinga strain)
EBOV [3] = assay type: cell-based, Zaire Ebolavirus (Mayinga strain)
HeLa cells [4] = assay type: cell-based, human; settings: for Dextran Uptake: 50 μM
HeLa cells [5] = assay type: cell-based, human; settings: for Transferrin uptake: 50 μM
[6] = test system: Baby hamster kidney fibroblasts (BHK) cells; assay: Acridine orange assay for acidification blockers; assay type: cell-based
Cathepsin = Cathepsin cleavage of GP
NPC1 C-loop = biological target: T1, NPC1 C-loop (Homo sapiens, UniProt O15118); assay: NPC1 C-loop binding
T1 construct: C-loop
T1 sequence (O15118 372-620 limits assumed): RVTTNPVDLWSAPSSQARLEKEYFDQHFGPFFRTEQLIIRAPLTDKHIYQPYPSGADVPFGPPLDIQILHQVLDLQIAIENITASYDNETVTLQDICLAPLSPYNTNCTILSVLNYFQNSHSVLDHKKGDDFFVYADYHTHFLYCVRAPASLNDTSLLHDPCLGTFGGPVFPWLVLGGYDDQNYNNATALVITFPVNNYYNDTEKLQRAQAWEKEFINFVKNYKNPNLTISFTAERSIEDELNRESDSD

IL-1-Beta = settings: PubChem / MLSMR data; cited from earlier work
EEA1-positive vesicles = assay type: cell-based, human
LAMP1-positive vesicles = assay type: cell-based, human
HeLa cells [7] = test system: HeLa cells
HeLa cells [8] = assay type: cell-based, human
MDM2/A = MDM2/A (Homo sapiens, UniProt Q00987); settings: MLSMR screening network data; cited from earlier work
MDM4/1 = biological target: T2, MDM4/1 (Homo sapiens, UniProt O15151); settings: MLSMR screening network data; cited from earlier work
T2 sequence (O15151 1-490): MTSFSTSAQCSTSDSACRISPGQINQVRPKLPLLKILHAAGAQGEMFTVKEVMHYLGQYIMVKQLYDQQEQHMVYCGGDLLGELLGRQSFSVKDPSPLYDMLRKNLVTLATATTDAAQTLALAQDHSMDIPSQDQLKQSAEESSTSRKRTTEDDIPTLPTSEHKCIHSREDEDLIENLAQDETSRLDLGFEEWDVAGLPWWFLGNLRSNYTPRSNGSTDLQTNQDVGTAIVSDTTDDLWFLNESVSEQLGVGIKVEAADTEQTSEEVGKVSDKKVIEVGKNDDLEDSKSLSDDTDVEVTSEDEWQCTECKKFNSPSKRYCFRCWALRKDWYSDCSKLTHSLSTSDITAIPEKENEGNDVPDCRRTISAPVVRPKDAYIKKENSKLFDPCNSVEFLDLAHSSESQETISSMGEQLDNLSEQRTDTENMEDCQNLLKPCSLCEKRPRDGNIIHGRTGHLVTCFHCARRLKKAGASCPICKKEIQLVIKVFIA

[9] = read-out: Activity in macrophages IC50

Sequence of MDM2/A (Q00987 whole entry, species assumed): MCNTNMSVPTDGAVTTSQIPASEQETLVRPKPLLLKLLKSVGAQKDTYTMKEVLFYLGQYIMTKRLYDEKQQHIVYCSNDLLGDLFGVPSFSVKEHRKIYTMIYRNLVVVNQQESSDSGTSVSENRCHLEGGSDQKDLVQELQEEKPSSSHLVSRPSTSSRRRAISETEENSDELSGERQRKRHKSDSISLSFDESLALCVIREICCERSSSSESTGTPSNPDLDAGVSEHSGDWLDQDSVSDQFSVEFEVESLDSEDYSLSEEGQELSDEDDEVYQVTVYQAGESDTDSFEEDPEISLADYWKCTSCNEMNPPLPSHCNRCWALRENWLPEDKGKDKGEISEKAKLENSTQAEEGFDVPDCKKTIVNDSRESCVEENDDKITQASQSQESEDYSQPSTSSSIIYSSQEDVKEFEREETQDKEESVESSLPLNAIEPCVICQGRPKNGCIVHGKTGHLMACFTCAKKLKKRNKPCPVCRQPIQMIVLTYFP

SMILES | Curve class (MARV) (MARV) | MARV (Curve class) (MARV) | IC50 (MARV; read-out: IC-50 (MARV)) [µM] | IC50 (MARV; read-out: MARV HeLa IC50) [µM] | Curve Class (EBOV) (EBOV [1]) | EBOV (curve class) (EBOV [1]) | IC50 (EBOV [1]; read-out: EBOV HeLa IC50) [µM] | IC50 (EBOV [1]; read-out: IC-50 (EBOV)) [µM] | IC50 (EBOV [2]; [9]) [µM] | Surface interaction (EBOV [3]) | Uninfected cell number (EBOV [3]) | Dextran Uptake (HeLa cells [4]) | Transferrin uptake (HeLa cells [5]) | Acidification Block [6] | Cathepsin clevage (Cathepsin) | NPC1 C-loop binding (NPC1 C-loop) | secretion of IL-1-Beta (IL-1-Beta) | effect on transferrin uptake (HeLa cells [5]) | Effect on EEA1 (EEA1-positive vesicles) | effect on endosomal acidification [6] | further results
C=C(c1ccc(O)cc1)c1ccc(O)cc1 [MLS000078751] | 1.5 | 1.5 | 6.13 | 6.1 | 1.3 | 1.3 | 25.6 | 25.6 | ~25 | − | + | 0 | 0 | − | 0 | 0 | inhibit secretion of IL-1-Beta |  |  |  | decrease in total viral particles bound to cell surface (EBOV [3]): 53%; virus particle uptake (EBOV [3]): reduced particle uptake
Cc1nn2c(NCCCN(C)C)c3c(nc2c1-c1ccccc1)CCCC3 [MLS000762907] | 1.3 | 1.3 | 12.5 | 12.5 | 1.3 | 1.3 | 3.2 | 3.19 | 23.4 | 0 | 0 | 0 | − | + | 0 | 0 |  | inhibited transferrin uptake; also recorded: reduced uptake of transferrin; also recorded: blocked uptake of transferrin | 0 |  | virus particle binding to cell surface (EBOV [3]): did not affect; effect on macropinocytic uptake of dextran (HeLa cells [4]): not of dextran; also recorded: did not affect; VLP colocalization with EEA1 (EEA1-positive vesicles): colocalized with EEA1 positive vesicles normally; also recorded: no effect; Effect on LAMP1 (LAMP1-positive vesicles): 0; VLP colocalization with LAMP1 (LAMP1-positive vesicles): no effect
Cc1cc(-c2nn(-c3ccccc3F)cc2CN2CCN(c3ccncc3)CC2)c(C)s1 [MLS000733230, 1-[[3-(2,5-dimethylthiophen-3-yl)-1-(2-fluorophenyl)pyrazol-4-yl]methyl]-4-pyridin-4-ylpiperazine] | 1.3 | 1.3 |  |  | 1.3 | 1.3 |  |  |  | 0 | 0 | − | 0 | + | 0 | 0 | inhibit secretion of IL-1-Beta | no effect on transferrin uptake |  | affected endosomal acidification | IC50 (MARV; Orthomarburgvirus, HeLa, read-out: IC-50 (MARV)): 11.7 µM; IC50 (MARV; Orthomarburgvirus, HeLa, read-out: MARV HeLa IC50 (μM)): 11.7 µM; potency for Ebolavirus inhibition, times better than EIPA (EBOV [1]): 7 times; EC50 (EBOV [1]; HeLa, read-out: EC50 for Ebolavirus inhibition): 6.7 µM; IC50 (EBOV [1]; Zaire ebolavirus, HeLa, read-out: EBOV HeLa IC50 (μM)): 6.7 µM; IC50 (EBOV [1]; Zaire ebolavirus, HeLa, read-out: IC-50 (EBOV)): 6.7 µM; IC50 (EBOV [2]; Zaire ebolavirus, Macrophage, read-out: Activity in macrophages IC50 (μM)): 4.4 µM; reduction of number of viral particles inside the cell body (EBOV [3]): 91%; reduction of uptake of fluorescently labeled dextran (HeLa cells [4]): approximately 91%; toxic concentration (not toxic up to / toxic at) (HeLa cells [7]; human): > 100 µM
N#Cc1c(NCCN)nc(-c2ccccc2)c2c1CCCC2 [MLS000534476] | 1.3 | 1.3 | 6.21 | 6.2 | 1.6 | 1.6 | 24.4 | 24.4 | 3.6 | − | + | 0 | − | + | 0 | 0 |  |  |  | affected endosomal acidification | decrease in total viral particles bound to cell surface (EBOV [3]): 55%; virus particle uptake (EBOV [3]): reduced particle uptake; decrease in transferrin binding to cells (HeLa cells [8]): > 55%; GP cleavage by cellular proteases (Cathepsin): reduced GP cleavage; inhibition of MDM2/A (MDM2/A): identified as inhibitors; inhibition of MDM4/1 (MDM4/1): identified as inhibitors
Cc1cc(N2CCN(C)CC2)nc2ccc(NC(=S)NCCCN3CCc4ccccc4C3)cc12 [MLS000730532] | 1.3 | 1.3 | 1.93 | 1.9 |  |  | 1.6 | 1.56 | 9.5 | 0 | 0 | − | − | + | 0 | 0 | inhibit secretion of IL-1-Beta | impaired uptake of this marker, comparable to chlorpromazine |  | affected endosomal acidification | reduction of number of viral particles inside the cell body (EBOV [3]): 89%; reduction of uptake of fluorescently labeled dextran (HeLa cells [4]): ~74%
CC(C)(CS(=O)(=O)[O-])NC(=O)CC[N+](C)(C)CCO [MLS000554255] | 1.3 | 1.3 | 6.39 | 6.4 | 1.5 | 1.5 | 6.8 | 6.84 | 6 | 0 | + | 0 | 0 | − | 0 | 0 |  | do not inhibit transferrin uptake | + |  | number of cells without virus bound (EBOV [3]): increased the number of cells without virus bound; increase of colocalization of VLPs with EEA1-positive vesicles (EEA1-positive vesicles): 83%; Effect on LAMP1 (LAMP1-positive vesicles): −; reduction of number of VLPs present in LAMP1-positive vesicles (LAMP1-positive vesicles): 33%
CCN(c1nc(N)c(C(=O)NC(=N)N)nc1Cl)C(C)C [EIPA, reference compound] |  |  |  |  |  |  |  |  |  |  |  |  |  |  |  |  |  |  |  | decreases endosomal acidification | reduction of uptake of fluorescently labeled dextran (HeLa cells [4]): 95%; toxic concentration (not toxic up to / toxic at) (HeLa cells [7]): 37 µM
CC(C)(C)c1nc2ccccc2c2nnc(SCC(=O)Nc3nccs3)n12 [MLS000555232] | 1.3 | 1.3 | 6.26 | 6.3 | 1.6 | 1.6 | 1.7 | 1.74 | 9.4 | + | 0 | 0 | 0 | − | 0 | 0 |  | do not inhibit transferrin uptake | − |  | enhancement of virus interaction with cells (EBOV [3]): 89%; increase in virus particle binding to the cell surface (EBOV [3]): ~2 fold; reduction of colocalization of EBOV VLPs with EEA1-positive vesicles (EEA1-positive vesicles): 77%; Effect on LAMP1 (LAMP1-positive vesicles): −; reduction of number of VLPs present in LAMP1-positive vesicles (LAMP1-positive vesicles): 89%; inhibition of MDM2/A (MDM2/A): identified as inhibitors; inhibition of MDM4/1 (MDM4/1): identified as inhibitors
